How the values were obtained:
[1] = tested on: acidic physiological saline-induced hyperalgesia model; assay: Preventive effect on development of hyperalgesia in a rat model (acidic physiological saline, von Frey test); assay type: in vivo; conditions: male SD rats, 3 mg/kg orally once daily for 10 days, measured on the day following the final administration (FIG. 2)
Method: Test Example 2: Preventive Effect on Development of Hyperalgesia in a Rat Model The following experiment was carried out according to the method as described in Test Example 1. In this test, male SD rats (Sprague-Dawley rats; 6 weeks of age at the start of the test) were employed as 10 rats for each treatment-group. Under ether anesthesia, 100 μl of physiological saline adjusted to pH 4 with acetic acid was injected to the rat's right gastrocnemius muscle twice at an interval of 5 days. Thirty minutes after the 2nd injection and once daily thereafter, a test compound or solvent was administered repeatedly at a volume of 5 ml/kg to the above rats for a total of 10 days. The test compound was used as a suspension in 0.5% MC aqueous solution and orally administered (a group treated with Test Compound), and in a group to which a solvent was administered 0.5% MC aqueous solution alone was orally administered (a group treated with Solvent). On the day following the final administration, the pain threshold (g) was measured in the same manner as the von Frey test as described in Test Example 1. The above rats were placed in a stainless steel cage (750width×210depth×170height in mm) and accommodated thereto for at least 20 minutes; after that the measurement was conducted. From the above results, the followings were elucidated.

[2] = tested on: hyperalgesia rats induced with an acidic physiological saline; assay: Effect for pain relief in a hyperalgesia model of rat (acidic physiological saline-induced hyperalgesia, von Frey test); assay type: in vivo; conditions: male SD rats, orally administered 5 and 10 mg/kg, 0.5-3 hours after administration (FIG. 1)
Method: Test Example 1: Effect for Pain Relief in a Hyperalgesia Model of Rat
An acidic physiological saline-induced hyperalgesia model, which is known as a model of diseases accompanied by chronic musculoskeletal pain was made according to the method described in Muscle & Nerve 24, p. 37-46 (2001) with a slight modification.
In this test, male SD rats (Sprague-Dawley rats; 6 weeks of age at the start of the test) were employed. Under ether anesthesia, 100 μl of physiological saline adjusted to pH 4 with acetic acid was injected to the rat's right gastrocnemius muscle twice at an interval of 5 days. At 10th and 11th days from the 2nd injection, the following test was conducted. […] In this connection, the pain threshold of normal rats was approximately 11 g.
The above hyperalgesia rats induced with an acidic physiological saline were placed in a stainless steel cage (750width×210depth×170height in mm) and accommodated thereto for at least 20 minutes. Thereafter, the pain threshold (g) was determined prior to administration of the test compound (0 hour) and 0.5 hour, 1 hour, 1.5 hours, 2 hours and 3 hours after the administration. […]
Hyperalgesia was evaluated by the von Frey test, and the results were indicated by the thresholds (g). […] The pain threshold (g) was calculated according to the W. J. Dixon's up-down method (Annual Review of Pharmacology and Toxicology, 20, p. 441-462 (1980)).

CCn1c(=O)c2c(nc(/C=C/c3ccc(OC)c(OC)c3)n2C)n(CC)c1=O [Compound 2]
pain threshold (development of hyperalgesia) [1]: no decrease | pain threshold in comparison with that of the group treated with Solvent [2]: greatly increased

— patent US20070149555A1, “Prophylatic and/or therapeutic agents for chronic musculoskeletal pain” (Kyowa Hakko Kogyo Co., Ltd, priority 2004, published 2007)
